# Data as given in US20230348358A1, “Serotonin Receptor Modulators” (Northeastern University, priority 2020, published 2023).
# “And” between values parts separate entries of the source, which are not always exact repeats. Identical values can stand only once. Like-named read-outs stand apart in the source and are kept apart here.
# Columns and labels:
# [1] = target: T1, 5HT1A (Homo sapiens, UniProt P08908); assay: 5HT1A function, Gαi cAMP signaling (CHO cells); format: cell-based
# T1 sequence (P08908 1-422): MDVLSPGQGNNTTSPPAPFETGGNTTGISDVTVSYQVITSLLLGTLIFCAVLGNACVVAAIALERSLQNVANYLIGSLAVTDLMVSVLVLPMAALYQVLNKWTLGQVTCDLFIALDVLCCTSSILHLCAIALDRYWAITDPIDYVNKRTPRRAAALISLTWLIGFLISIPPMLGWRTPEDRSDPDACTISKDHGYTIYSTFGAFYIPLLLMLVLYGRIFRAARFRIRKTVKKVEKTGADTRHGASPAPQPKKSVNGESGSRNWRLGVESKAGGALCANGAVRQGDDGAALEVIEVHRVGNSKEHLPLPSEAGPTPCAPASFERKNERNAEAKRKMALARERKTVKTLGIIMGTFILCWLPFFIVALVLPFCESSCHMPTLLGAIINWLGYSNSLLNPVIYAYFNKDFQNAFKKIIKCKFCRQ
# [2] = target: T2, 5HT7 (Homo sapiens, UniProt P34969); assay: 5HT7 function, Gs-cAMP signaling (HEK293 cells); format: cell-based; design: ATCC CRL-1573 (cells); settings: for Function at 5HT7: cAMP signaling
# T2 sequence (P34969 whole entry): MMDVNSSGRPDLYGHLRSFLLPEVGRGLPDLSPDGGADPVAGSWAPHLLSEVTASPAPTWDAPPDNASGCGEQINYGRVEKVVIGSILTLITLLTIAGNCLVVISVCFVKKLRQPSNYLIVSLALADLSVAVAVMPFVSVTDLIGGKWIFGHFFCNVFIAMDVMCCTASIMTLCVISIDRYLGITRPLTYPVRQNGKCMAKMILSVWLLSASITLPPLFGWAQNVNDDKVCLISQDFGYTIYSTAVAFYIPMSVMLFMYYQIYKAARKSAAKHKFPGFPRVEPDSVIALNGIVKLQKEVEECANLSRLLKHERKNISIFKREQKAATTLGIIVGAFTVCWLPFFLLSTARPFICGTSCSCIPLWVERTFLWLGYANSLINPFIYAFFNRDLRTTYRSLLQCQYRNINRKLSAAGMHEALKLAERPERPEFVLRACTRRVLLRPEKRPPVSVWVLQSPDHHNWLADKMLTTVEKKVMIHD
# Text: It is certain that the C(5) substituent impacts function. […] In FIG. 3, results of measured (S)-5-PAT scaffold yields with various function as 5HT7 ligands are compared with AS-19 and clozapine.
# [3] = target: T1, 5HT1A; assay: Affinity (Ki) at 5HT1A, transfected HEK cells
# [4] = target: T2, 5HT7; assay: Affinity (Ki) at 5HT7, HEK293 cells stably expressing 5HT7
# [5] = tested on: C57BL/6J mice; assay: DOI-elicited head-twitch response (HTR); format: in vivo, mouse; settings: mouse, in vivo
# Text: The 5-HT2A receptor is a predominant 5-HT receptor in the cortex, and serves important excitation modulation functions on glutamate pyramidal and GABA neurons.
# [6] = tested on: mice (C57BL/6J, FVB, C58/J); assay: Locomotor behavior, compound on its own; format: in vivo, mouse; settings: for Locomotor behavior: compound on its own or in the DOI assay
# [7] = target: T3, 5HT2A receptors (Homo sapiens, UniProt P28223); assay: biochemical; format: binding
# T3 construct: host or cells: HEK293, transient
# T3 sequence (P28223 whole entry): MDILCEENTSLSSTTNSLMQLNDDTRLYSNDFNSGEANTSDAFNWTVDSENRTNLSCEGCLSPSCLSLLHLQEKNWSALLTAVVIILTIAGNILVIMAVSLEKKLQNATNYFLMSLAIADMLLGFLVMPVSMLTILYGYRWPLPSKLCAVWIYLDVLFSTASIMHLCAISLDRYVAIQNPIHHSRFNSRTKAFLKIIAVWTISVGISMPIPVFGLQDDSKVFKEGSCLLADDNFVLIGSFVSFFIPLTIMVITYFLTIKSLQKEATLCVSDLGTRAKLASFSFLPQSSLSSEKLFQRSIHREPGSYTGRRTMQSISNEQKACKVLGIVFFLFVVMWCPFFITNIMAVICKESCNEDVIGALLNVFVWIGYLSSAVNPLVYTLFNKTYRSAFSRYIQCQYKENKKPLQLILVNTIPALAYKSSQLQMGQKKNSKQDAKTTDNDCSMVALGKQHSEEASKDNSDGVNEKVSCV
# [8] = target: T3, 5HT2A receptors; assay: 5-HT2A function in HEK cells over-expressing the receptor; format: cell-based
# [9] = tested on: BL/6J mice; assay: Serotonin syndrome-like behavior observation; format: in vivo, mouse; settings: mouse, in vivo
# [10] = target: T2, 5HT7; design: ATCC CRL-1573 (cells); settings: reported human receptor data; cited from earlier work
# [11] = target: T4, 5HT2B receptors (Homo sapiens, UniProt P41595); assay: Affinity at 5HT2B receptors; format: binding
# T4 construct: host or cells: HEK293, transient
# T4 sequence (P41595 whole entry): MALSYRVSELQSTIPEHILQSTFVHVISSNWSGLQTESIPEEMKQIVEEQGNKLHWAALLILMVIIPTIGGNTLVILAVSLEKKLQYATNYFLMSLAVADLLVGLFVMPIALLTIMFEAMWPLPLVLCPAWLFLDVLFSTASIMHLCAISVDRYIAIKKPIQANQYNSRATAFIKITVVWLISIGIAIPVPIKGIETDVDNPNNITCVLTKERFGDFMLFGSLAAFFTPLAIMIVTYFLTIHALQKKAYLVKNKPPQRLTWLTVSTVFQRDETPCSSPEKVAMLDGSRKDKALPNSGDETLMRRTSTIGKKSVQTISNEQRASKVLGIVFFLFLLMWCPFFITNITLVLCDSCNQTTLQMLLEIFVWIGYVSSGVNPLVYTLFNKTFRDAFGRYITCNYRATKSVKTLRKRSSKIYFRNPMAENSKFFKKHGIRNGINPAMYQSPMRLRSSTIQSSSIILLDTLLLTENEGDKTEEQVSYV
# [12] = target: T4, 5HT2B receptors; assay: 5HT2B functional assays; format: cell-based
# [13] = target: T5, 5HT2C receptors (Homo sapiens, UniProt P28335); assay: 5HT2C functional assay; format: cell-based
# T5 construct: host or cells: HEK293, transient
# T5 sequence (P28335 33-458): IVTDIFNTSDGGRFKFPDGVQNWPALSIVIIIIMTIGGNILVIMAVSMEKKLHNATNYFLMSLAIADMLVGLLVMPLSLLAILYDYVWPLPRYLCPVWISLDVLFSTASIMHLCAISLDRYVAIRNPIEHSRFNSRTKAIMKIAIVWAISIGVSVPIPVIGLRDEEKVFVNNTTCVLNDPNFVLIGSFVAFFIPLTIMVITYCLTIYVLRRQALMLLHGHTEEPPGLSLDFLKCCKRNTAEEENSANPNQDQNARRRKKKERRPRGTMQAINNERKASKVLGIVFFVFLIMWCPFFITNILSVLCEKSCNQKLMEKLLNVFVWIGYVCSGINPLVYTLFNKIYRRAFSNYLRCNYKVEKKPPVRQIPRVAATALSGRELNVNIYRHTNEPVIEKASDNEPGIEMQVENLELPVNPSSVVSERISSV
# [14] = tested on: 50 CNS/peripheral sites; assay: NIMH PDSP / NIDA evaluation at 50 CNS/peripheral sites; format: binding
# [15] = target: T2, 5HT7; design: ATCC CRL-1573 (cells); settings: cited from earlier work
# [16] = read-out: Affinity Ki ± SEM at 5HT1A
# [17] = read-out: Affinity Ki ± SEM at 5HT7
compound,measurement,setting,value
"CN(C)[C@H]1CCc2c(cccc2-c2ccccc2)C1.Cl [(S)-5-PT, N,N-dimethyl-5-phenyl-1,2,3,4-tetrahydronaphthalen-2-amine HCl]",Function at 5HT1A,[1],Partial agonist
same,Function at 5HT7,[2],Neutral antagonist
same,Ki,[3],22 ± 3 nM
same,Ki,[4]; Affinity Ki ± SEM at 5HT7,9.5 ± 1.5 nM
"O=C1CC2(CCCC2)CC(=O)N1CCCCN1CCN(c2ncccn2)CC1 [Buspirone, reference compound]",Function at 5HT1A,[1],Partial agonist
same,DOI-elicited HTR,[5],reduces DOI-elicited repetitive behavior
same,Catatonia,"[6]; 3 mg/kg, by itself",causes stupor-like catatonia
same,Locomotor behavior,[6],reduces locomotor behavior
CN(C)[C@@H]1CCc2c(cccc2-c2ccccc2F)C1 [(2R)-5-FPT],Affinity at 5-HT2A receptors,"[7]; human and mouse 5-HT2A receptors, compared with (2S)-5-FPT",substantially higher affinity
same,Function at 5-HT2A receptors,[8],neutral antagonist function
same,DOI-elicited HTR,[5],substantially less efficacious than (2S)-5-FPT
same,5-HT7 agonist potency of (R)-enantiomer less than (S)-isomer,[2],about 11 times
same,EC50,[2],378 nM
same,"EMAX vs AS-19, 5-HT7 Gs-cAMP signaling",[2],29%
same,Function at 5HT7,[2],partial agonism
same,Ki,[4]; Affinity Ki ± SEM at 5HT7,750 nM and ~460 nM
"CCCN(CCC)C1CCc2cccc(O)c2C1 (stereo not drawn) [(—)-DPAT, reference compound]",DOI-elicited HTR,[5],suppressed the DOI HTR
same,Locomotor behavior,[6],"neither (—)-DPAT, a 5-HT1A partial agonist, nor AS-19 affected locomotor behavior"
same,Serotonin syndrome,[9],"neither (—)-DPAT, a 5-HT1A partial agonist, nor AS-19 affected locomotor behavior or caused obvious serotonin syndrome"
"CCCN(CCC)[C@H]1CCc2c(cccc2-c2ccccc2)C1.Cl [(S)-5-PPT, (2S)-5-phenyl-N,N-dipropyl-1,2,3,4-tetrahydronaphthalen-2-amine HCl]",Function at 5HT7,[2],Full agonist
same,Ki,[3]; [16],5.9 ± 1.1 nM
same,Ki,[4]; [17],34 ± 3 nM
CN(C)[C@H]1CCc2c(cccc2-c2cccn2C)C1 [(S)-5-PyT],Function at 5HT1A,[1],Partial agonist
same,Function at 5HT1A,[1]; listed as 5-PyT,agonist at 5HT1A/Gαi
same,Function at 5HT1A,[1]; listed as (2S)-5-PyT,agonist
same,Function at 5HT7,[2],Inverse agonist
same,Function at 5HT7,[2]; listed as 5-PyT,inverse agonist at 5HT7/Gαs
same,Function at 5HT7,[2]; listed as (2S)-5-PyT,inverse agonist
same,Ki,[3],24 ± 0.2 nM
same,Ki,[4]; Affinity Ki ± SEM at 5HT7,33 ± 4 nM
"CCCN(CCC)[C@H]1CCc2c(cccc2-c2ccccc2Cl)C1 [(S)-5-CPPT, (2S)-5-(2′-chlorophenyl)-N,N-dipropyl-1,2,3,4-tetrahydronaphtha-len-2-amine]",Function at 5HT7,[2],Full agonist
same,Ki,[3],0.6 ± 0.2 nM
same,Ki,[4]; [17],5.9 ± 1 nM
"CCCN(CCC)C1CCc2cccc(O)c2C1 (single isomer, unassigned; (+)) [(+)-DPAT, reference compound]",DOI-elicited HTR,[5],suppressed the DOI HTR
same,Locomotor behavior,[6],severe hypolocomotion
same,Serotonin syndrome,[9],obvious serotonin syndrome
"CN(C)[C@H]1CCc2c(cccc2-c2cccc3ccccc23)C1 [(S)-5-NaT, (2S)—N,N-dimethyl-5,6,7,8-tetrahydro-[1,1′-binaphthalen]-6-amine]",Function at 5HT1A,[1],Partial agonist
same,Function at 5HT7,[2],Partial agonist
same,Ki,[3]; [16],64 ± 12 nM
same,Ki,[4]; [17],5.2 ± 1.1 nM
"Cc1nn(C)c(C)c1-c1cccc2c1CC[C@H](N(C)C)C2 [(S)-AS-19, (2S)-5-trimethylpyrazolyl-2-dimethyl-aminotetralin, reference compound]",DOI-elicited HTR,[5],suppressed the DOI HTR
same,Locomotor behavior,[6],"neither (—)-DPAT, a 5-HT1A partial agonist, nor AS-19 affected locomotor behavior"
same,Serotonin syndrome,[9],"neither (—)-DPAT, a 5-HT1A partial agonist, nor AS-19 affected locomotor behavior or caused obvious serotonin syndrome"
same,Function at 5HT7,[2],Partial agonist
same,Ki,[3]; [16],240 nM
same,Selectivity for 5HT7 over 5HT1A,[4]; from Ki of Table 1,20 fold
same,Ki,[4]; [17],12 nM
"Fc1ccccc1-c1cccc2c1CCC(N1CCCC1)C2 (racemic) [(R/S)-5-FPyT, 1-(5-(2-fluorophenyl)-1,2,3,4-tetrahydronaphthalen-2-yl)-pyrrolidine]",Ki,[3],1.3 ± 0.1 nM
same,Ki,[4],51 ± 8 nM
N#Cc1ccc(CNC(=O)CCCCCN2CCN(c3ccccc3-c3ccccc3)CC2)cc1 [LP-211],Selectivity for 5HT7 over 5HT1A receptors,[10],about 25 X
"CN(C)[C@H]1CCc2c(cccc2-c2ccccc2Cl)C1.Cl [(S)-5-CPT, (2S)-5-(2-chlorophenyl)-N,N-dimethyl-1,2,3,4-tetrahydronaphthalen-2-amine HCl]",Function at 5HT1A,[1],Partial agonist
same,Ki,[7],~500 nM
same,Ki,[11],11 nM
same,5HT2B functional activity,[12],devoid of 5HT2B activity up to 100 μM
same,Agonist efficacy/potency at 5HT2C receptors,[13],less potency and efficacy
same,Activity at 50 CNS/peripheral sites,[14],without activity at 50 CNS/peripheral sites
same,Function at 5HT7,[2],Partial agonist
same,Ki,[3]; [16],7.5 ± 1.5 nM
same,Ki,[4]; [17],1 ± 0.12 nM
"CCCN(CCC)[C@@H]1CCc2cccc(O)c2C1 [Compound 8-OH-DPAT, (R)-8-hydroxy-2-(n-di-propylamino)tetralin]",Function at 5HT7 (literature),[15],low-potency 5HT7 partial agonist
